Tests used:
[1] = target: T1, KIPKL2 (Arabidopsis thaliana, UniProt Q9LZS4); assay: in vitro phosphorylation of GST-PIN3CL, autoradiography; format: biochemical; conditions: MBP fusion; 100 µM ATP with [γ-32P]ATP, labelled compound; 5 mM MgCl2, pH 7.5, 30 °C, 1 h
T1 construct: gene AGC1-8; GST fusion (PIP strips) or MBP fusion (phosphorylation), tags kept, from E. coli Rosetta (DE3)
T1 sequence (Q9LZS4 1-926): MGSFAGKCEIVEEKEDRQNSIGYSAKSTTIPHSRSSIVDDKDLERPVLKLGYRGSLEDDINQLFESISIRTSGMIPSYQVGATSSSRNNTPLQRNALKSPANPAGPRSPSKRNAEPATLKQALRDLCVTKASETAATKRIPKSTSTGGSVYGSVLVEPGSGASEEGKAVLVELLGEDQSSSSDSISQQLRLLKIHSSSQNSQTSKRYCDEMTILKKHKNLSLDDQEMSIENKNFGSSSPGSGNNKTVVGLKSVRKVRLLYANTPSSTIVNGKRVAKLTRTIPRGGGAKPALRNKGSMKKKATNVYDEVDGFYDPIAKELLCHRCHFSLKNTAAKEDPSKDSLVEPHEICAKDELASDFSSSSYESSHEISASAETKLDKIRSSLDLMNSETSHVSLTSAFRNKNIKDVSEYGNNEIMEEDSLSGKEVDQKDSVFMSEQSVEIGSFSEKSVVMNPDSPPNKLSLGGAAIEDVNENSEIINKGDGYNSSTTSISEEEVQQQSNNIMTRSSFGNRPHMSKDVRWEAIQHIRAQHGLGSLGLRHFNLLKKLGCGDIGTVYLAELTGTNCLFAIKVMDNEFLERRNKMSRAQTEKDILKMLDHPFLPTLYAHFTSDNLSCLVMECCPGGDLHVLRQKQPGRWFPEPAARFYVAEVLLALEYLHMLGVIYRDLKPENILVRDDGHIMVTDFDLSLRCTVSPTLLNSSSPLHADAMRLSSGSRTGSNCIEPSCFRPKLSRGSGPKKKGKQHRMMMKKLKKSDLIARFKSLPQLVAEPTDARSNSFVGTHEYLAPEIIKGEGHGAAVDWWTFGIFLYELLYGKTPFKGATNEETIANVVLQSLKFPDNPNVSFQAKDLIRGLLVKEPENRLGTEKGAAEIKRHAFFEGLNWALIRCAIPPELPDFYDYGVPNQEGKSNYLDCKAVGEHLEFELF

[2] = target: T2, KIPKL1 (Arabidopsis thaliana, UniProt Q9SJM3); assay: as above; format: biochemical; conditions: MBP fusion; 100 µM ATP with [γ-32P]ATP, labelled compound; 5 mM MgCl2, pH 7.5, 30 °C, 1 h
T2 construct: gene KIPK2; GST fusion (PIP strips) or MBP fusion (phosphorylation), tags kept, from E. coli Rosetta (DE3)
T2 sequence (Q9SJM3 1-949): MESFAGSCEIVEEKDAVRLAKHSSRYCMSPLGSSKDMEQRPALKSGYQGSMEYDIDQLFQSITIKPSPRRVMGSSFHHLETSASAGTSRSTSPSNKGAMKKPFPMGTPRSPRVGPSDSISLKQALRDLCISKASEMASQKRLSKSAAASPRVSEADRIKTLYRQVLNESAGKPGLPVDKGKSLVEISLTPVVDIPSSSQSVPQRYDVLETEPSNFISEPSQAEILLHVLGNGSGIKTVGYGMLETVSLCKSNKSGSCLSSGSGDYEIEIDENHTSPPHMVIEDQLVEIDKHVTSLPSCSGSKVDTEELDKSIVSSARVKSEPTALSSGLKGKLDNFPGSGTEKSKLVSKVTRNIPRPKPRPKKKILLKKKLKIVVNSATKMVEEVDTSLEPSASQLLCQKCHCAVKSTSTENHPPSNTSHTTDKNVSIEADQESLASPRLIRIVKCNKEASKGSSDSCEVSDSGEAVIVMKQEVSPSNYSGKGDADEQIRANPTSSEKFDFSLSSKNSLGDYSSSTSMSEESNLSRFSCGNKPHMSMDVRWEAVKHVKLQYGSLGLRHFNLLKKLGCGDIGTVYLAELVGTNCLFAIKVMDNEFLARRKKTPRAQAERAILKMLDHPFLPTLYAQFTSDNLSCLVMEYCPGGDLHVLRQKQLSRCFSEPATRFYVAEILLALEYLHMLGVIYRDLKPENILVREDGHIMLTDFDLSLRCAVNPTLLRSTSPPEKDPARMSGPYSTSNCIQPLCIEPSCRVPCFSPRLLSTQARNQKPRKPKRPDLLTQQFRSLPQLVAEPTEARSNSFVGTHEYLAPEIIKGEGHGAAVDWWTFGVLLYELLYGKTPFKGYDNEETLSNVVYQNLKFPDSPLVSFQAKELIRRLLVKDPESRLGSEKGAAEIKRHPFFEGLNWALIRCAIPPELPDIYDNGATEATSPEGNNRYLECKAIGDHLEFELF

[3] = target: T3, KIPK (Arabidopsis thaliana, UniProt Q9LFA2); assay: as above; format: biochemical; conditions: MBP fusion; 100 µM ATP with [γ-32P]ATP, labelled compound; 5 mM MgCl2, pH 7.5, 30 °C, 1 h
T3 construct: gene KIPK1; GST fusion (PIP strips) or MBP fusion (phosphorylation), tags kept, from E. coli Rosetta (DE3)
T3 sequence (Q9LFA2 1-934): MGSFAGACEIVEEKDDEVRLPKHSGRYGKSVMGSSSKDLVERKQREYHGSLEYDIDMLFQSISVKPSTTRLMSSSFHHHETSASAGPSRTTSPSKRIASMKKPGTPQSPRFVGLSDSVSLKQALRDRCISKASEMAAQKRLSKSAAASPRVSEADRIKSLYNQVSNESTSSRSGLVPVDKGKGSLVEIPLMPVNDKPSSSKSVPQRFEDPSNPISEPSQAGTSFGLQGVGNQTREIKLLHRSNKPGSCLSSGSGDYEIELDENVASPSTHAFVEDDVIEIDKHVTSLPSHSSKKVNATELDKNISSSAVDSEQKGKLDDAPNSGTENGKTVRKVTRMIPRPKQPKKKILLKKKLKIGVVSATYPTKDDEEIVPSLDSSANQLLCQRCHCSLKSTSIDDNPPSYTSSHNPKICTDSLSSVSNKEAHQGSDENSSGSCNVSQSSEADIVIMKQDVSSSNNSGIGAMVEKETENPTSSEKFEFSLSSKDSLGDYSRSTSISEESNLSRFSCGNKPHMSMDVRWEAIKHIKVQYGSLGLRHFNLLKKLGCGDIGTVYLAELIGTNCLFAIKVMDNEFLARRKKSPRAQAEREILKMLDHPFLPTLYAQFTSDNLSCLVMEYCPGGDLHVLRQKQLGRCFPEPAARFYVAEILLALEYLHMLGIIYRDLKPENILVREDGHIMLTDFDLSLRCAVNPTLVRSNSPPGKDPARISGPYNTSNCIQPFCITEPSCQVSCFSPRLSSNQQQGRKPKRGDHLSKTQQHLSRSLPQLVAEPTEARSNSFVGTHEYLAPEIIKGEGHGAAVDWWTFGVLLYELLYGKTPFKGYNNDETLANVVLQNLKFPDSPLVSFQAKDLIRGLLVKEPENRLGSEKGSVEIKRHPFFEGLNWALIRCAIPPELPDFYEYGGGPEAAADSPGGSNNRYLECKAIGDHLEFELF

[4] = target: T4, PIN3 (Arabidopsis thaliana, UniProt Q9S7Z8); assay: [3H]-IAA efflux from Xenopus oocytes; format: cell-based; conditions: co-expressed with KIPK or KIPKL1; about 1 µM internal [3H]-IAA, labelled compound; outside pH 7.4, 21 °C
T4 sequence (Q9S7Z8 1-640): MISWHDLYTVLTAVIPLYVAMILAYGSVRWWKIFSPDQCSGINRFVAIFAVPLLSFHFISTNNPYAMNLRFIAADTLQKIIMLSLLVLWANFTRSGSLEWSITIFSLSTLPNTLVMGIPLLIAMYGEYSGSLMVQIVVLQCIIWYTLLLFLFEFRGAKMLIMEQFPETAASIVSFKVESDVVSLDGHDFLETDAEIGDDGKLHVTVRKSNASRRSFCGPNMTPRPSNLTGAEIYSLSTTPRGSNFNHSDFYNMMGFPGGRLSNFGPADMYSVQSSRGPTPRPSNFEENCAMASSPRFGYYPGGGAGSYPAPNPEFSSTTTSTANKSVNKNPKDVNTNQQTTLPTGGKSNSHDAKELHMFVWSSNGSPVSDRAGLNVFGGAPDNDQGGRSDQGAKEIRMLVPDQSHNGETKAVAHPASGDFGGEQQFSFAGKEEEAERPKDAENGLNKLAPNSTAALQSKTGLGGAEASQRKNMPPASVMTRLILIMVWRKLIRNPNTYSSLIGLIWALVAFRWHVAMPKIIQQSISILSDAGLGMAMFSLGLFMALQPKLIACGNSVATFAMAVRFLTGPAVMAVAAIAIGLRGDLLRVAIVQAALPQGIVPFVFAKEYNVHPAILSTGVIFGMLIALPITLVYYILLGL

SMILES | in vitro phosphorylation of GST-PIN3CL, autoradiography [1] | in vitro phosphorylation of GST-PIN3CL, autoradiography [2] | in vitro phosphorylation of GST-PIN3CL, autoradiography [3] | [3H]-IAA efflux from Xenopus oocytes [4]
Nc1ncnc2c1ncn2[C@@H]1O[C@H](COP(=O)(O)OP(=O)(O)OP(=O)(O)O)[C@@H](O)[C@H]1O [ATP] | GST-PIN3CL phosphorylation by MBP-KIPKL2 was reproducibly comparatively less efficient | MBP-KIPK and MBP-KIPKL1 phosphorylated the GST- (glutathione-S-transferase-) tagged PIN3 cytoplasmic loop | MBP-KIPK and MBP-KIPKL1 phosphorylated the GST- (glutathione-S-transferase-) tagged PIN3 cytoplasmic loop | –
O=C(O)Cc1c[nH]c2ccccc12 [IAA] | – | – | – | PIN3-mediated auxin efflux was activated when PIN3 was co-expressed with KIPK or KIPKL1
